Assays:
[1] = test system: stressed and non-stressed mice; conditions: cited from earlier work
[2] = test system: stressed subjects; assay: gastrointestinal motility in stressed subjects, oral administration; format: in vivo
[3] = test system: rats; assay: visceral hyperalgesia in rats, oral administration; format: in vivo

Row | Structure (SMILES) | dose range of the effect [1] | gastrointestinal transit and fecal output [1] | gastrointestinal (GI) motility [2] | anti-visceral hyperalgesic effects [3]
1 | CN(C)C(=O)C(CCN1CCC(O)(c2ccc(Cl)cc2)CC1)(c1ccccc1)c1ccccc1 [loperamide] | narrow dose range | completely prevented fecal output |  | 
2 | COc1ccc(CN(C(=O)C(N)Cc2c(C)cc(C(N)=O)cc2C)C(C)c2nc(-c3ccccc3)c[nH]2)cc1C(=O)O (stereo not shown) [active ingredient] |  |  | efficacious in normalizing gastrointestinal (GI) motility | providing anti-visceral hyperalgesic effects

— patent US11007179B2, “Opioid receptor modulator dosage formulations” (Allergan Holdings Unlimited Company, priority 2013, dated 2021)
